In BigSolDB 2.1:

Conditions: in n-octanol

Cc1ccccc1C(=O)O
Conditions	solubility (mole fraction)
297.15 K	0.155
299.65 K	0.165
301.15 K	0.18
302.65 K	0.19
304.75 K	0.196
305.35 K	0.197
306.25 K	0.2
306.95 K	0.208
308.95 K	0.219
310.65 K	0.23
312.25 K	0.239
314.05 K	0.25
315.75 K	0.26
316.95 K	0.271
318.75 K	0.281
320.35 K	0.294
321.55 K	0.305

O=C(O)c1ccc(O)cc1
Conditions	solubility (mole fraction)
297.65 K	0.105
299.95 K	0.107
301.45 K	0.109
302.85 K	0.11
304.25 K	0.112
305.85 K	0.113
306.95 K	0.115
308.15 K	0.116
309.85 K	0.117
311.25 K	0.119
313.15 K	0.121
315.45 K	0.122
317.25 K	0.124
318.65 K	0.126
320.55 K	0.128
322.25 K	0.13

O=C(O)c1ccccc1[N+](=O)[O-]
Conditions	solubility (mole fraction)
297.15 K	0.0761
299.65 K	0.0806
300.15 K	0.084
302.05 K	0.0895
303.15 K	0.0928
306.15 K	0.101
307.15 K	0.104
308.35 K	0.108
309.25 K	0.113
310.15 K	0.117
311.75 K	0.122
313.15 K	0.129
314.85 K	0.135
317.15 K	0.141
318.65 K	0.147
319.85 K	0.154
321.15 K	0.161

Cc1ccc(C(=O)O)cc1
Conditions	solubility (mole fraction)
297.35 K	0.0595
298.05 K	0.0608
298.95 K	0.0618
301.65 K	0.0663
307.25 K	0.0767
308.65 K	0.0789
309.65 K	0.0816
312.95 K	0.0871
314.35 K	0.0896
315.8 K	0.0925
317.65 K	0.0962
319.65 K	0.0997
320.4 K	0.101
321.55 K	0.103
322.15 K	0.104

O=C(O)c1ccccc1
Conditions	solubility (mole fraction)
300.15 K	0.192
